“Also recorded” adds a separate entry of the source.
Columns and labels:
[1] = tested on: Aβ42 and Aβ40 levels; experiment: Repeat-dose (7-day) efficacy study in mice; format: in vivo, C57BL/6J mice
Description: Male C57BL/6J mice (n = 10/dose level) and male Sprague–Dawley rats (n = 14/dose level) were administered either vehicle (80% polyethylene glycol 400 v/v; 20% sterile water v/v and 0.1% Tween 20 v/v) or BPN-15606 (10, 25, and 50 mg/kg) once daily po for 7 consecutive days (mice) or 5, 25, and 50 mg/kg once daily po for 9 consecutive days (rats). […] Animals were sacrificed 4 hours following the dosing on day 7 of the 7-day oral treatment course (mice) and on day 9 of the 9-day oral treatment course (rats). Plasma and brain extracts were prepared (mice and rats); CSF was aspirated from the cisterna magnum with minimal to no blood contamination (rats only); and tissues were frozen at −70°C. Aβ peptides were quantitated in brain extracts and plasma (mice) or CSF and plasma (rats), as described previously, using Meso Scale multiplex kits and the Meso Scale Sector Imager 6000 ([Kounnas et al., 2010]). Statistical analysis was performed using GraphPad Prism software, and results are expressed as mean ± S.E.M. Analysis of variance was used to detect a significant effect. Drug levels of BPN-15606 were measured in plasma and brain extracts using the bioanalytical methods detailed above.

[2] = PK in rat (i.v./po); format: in vivo; settings: male, plasma, Sprague–Dawley rats, 5 mg/kg po vs 1 mg/kg i.v.
Description: Male CD-1 mice and male Sprague–Dawley rats were administered a single dose of BPN-15606 by i.v. or oral gavage (po) dose routes to assess oral bioavailability. Mice and rats received BPN-15606 as a single i.v. dose at 1 mg/kg (n = 5) or a single po dose at 5 mg/kg (n = 5). Blood was collected from mice and rats at 5 (i.v. only), 15, and 30 minutes, and 1, 2, 4, 8, and 12 hours postdose for processing to plasma. For mice, brains were collected from both dose groups (i.v. and po) at 1, 4, 8, and 12 hours postdose. For rats, brains were collected from those same animals at the 12-hour time point only. […]
Data were subjected to noncompartmental analysis using WinNonlin Phoenix Model 200 (for extravascular administration) or Model 201 (for i.v. bolus administration) and the sparse sampling feature; a uniform weighting factor was applied to each data set. Time to maximum plasma concentration (Tmax) and maximum plasma concentration (Cmax) values were determined directly from the data. Area under the plasma concentration–time curve to the last time point (AUClast) values were calculated using the log/linear trapezoidal (i.v. dose) or linear up/log down trapezoidal (po dose). Values were calculated using the plasma data from composite groups. […] The volume of distribution at steady state and clearance were calculated using the i.v. group data. […]

[3] = tested on: bone marrow polychromatic erythrocytes; experiment: Bone marrow micronucleus assay in rats; format: in vivo; settings: 7 days at 30 or 100 mg/kg
Description: The micronucleus component of this study was performed to evaluate the ability of BPN-15606 to induce chromosomal damage in bone marrow of male Sprague–Dawley rats. Rats (n = 5/group) were scheduled to receive single daily doses of BPN-15606 for 7 days at 30, 100, and 300 mg/kg/d (groups 2, 3, and 4, respectively), with euthanasia scheduled 24 hours after the final dose. Animals receiving 300 mg/kg/d were sacrificed in moribund condition on day 3 or 4 due to excessive toxicity, and micronucleus formation was not evaluated; all other treated animals survived to necropsy. Bone marrow samples collected from the low and mid dose groups (30 and 100 mg/kg) were evaluated for cytotoxicity and for micronucleus formation (see Supplemental Table 8). Three bone marrow smear slides were prepared per animal and fixed in absolute methanol. […] Two slides per animal were stained with acridine orange, coded, and evaluated (blind) using epifluorescence microscopy. […] The criteria employed for identifying and quantitating micronuclei are those described by [Schmid (1975)]. Two principal parameters were determined, as follows: 1) the number of PCE among 200 total red blood cells (RBC) per animal (PCE/RBC ratio), which provides an index of bone marrow cytotoxicity, and 2) the number of micronucleated RNA-positive PCE among a total of 2000 PCE per animal, which provides an index of chromosomal damage.

COc1nc(-c2cc(C)c(N[C@@H](C)c3ccc(F)cc3)nn2)ccc1-n1cnc(C)c1 [BPN-15606, (S)-N-(1-(4-fluorophenyl)ethyl)-6-(6-methoxy-5-(4-methyl-1H-imidazol-1-yl)pyridin-2-yl)-4-methylpyridazin-3-amine]
lowering of brain Aβ42 levels ([1]; mice, 10 mg/kg): ~40% | lowering of brain Aβ42 levels ([1]; mice, 25 mg/kg): 70–75% | lowering of plasma Aβ42 ([1]; mice, 25 mg/kg): > 90% | clinical observations ([1]; mice, 10, 25, 50 mg/kg po daily for 7 days): all animals appeared normal throughout the study | bioavailability [2]: > 60% | micronucleus induction in bone marrow (micronucleated PCE) [3]: did not induce micronuclei; also recorded: no statistically significant increase | suppression of PCE among RBC in bone marrow [3]: no significant suppression

Reference: publication PMC5454592, “Pharmacological and Toxicological Properties of the Potent Oral γ-Secretase Modulator BPN-15606” (The Journal of Pharmacology and Experimental Therapeutics, 2017)
